Inhibition data for eight compounds are collected here from US9593118B2, “Xanthine-substituted alkynyl carbamates/reverse carbamates as A2B antagonists” (Lewis and Clark Pharmaceuticals, Inc., priority 2015, dated 2017).

The structures appear in SMILES notation. A value given as a limit tells only on which side of the number the result lay.

The target of this experiment is T1, A2B adenosine receptor (Homo sapiens, UniProt P29275).
T1 construct: An endogenous A2B adenosine receptor coupled to cyclic AMP generation in human embryonic kidney (HEK-293) cells; endogenous in cells
T1 sequence (P29275 1-332): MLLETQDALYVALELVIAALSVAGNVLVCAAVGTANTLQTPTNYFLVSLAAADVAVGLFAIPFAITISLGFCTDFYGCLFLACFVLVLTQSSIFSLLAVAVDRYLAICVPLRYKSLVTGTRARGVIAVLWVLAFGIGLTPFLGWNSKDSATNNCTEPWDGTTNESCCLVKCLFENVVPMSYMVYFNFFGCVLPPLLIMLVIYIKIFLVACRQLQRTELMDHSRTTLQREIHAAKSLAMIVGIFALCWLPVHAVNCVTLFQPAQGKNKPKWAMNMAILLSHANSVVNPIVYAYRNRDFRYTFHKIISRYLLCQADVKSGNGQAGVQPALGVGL
The experiment in a line: A2B antagonist cAMP assay (inhibition of the NECA response, HTRF). The experiment is classed as cell-based. The settings on record: test compound at 1×10^−7M; percent inhibition of the control response to 1 μM NECA (cAMP). The method, then:
Representative compounds of the present invention have been tested for their activity as A2B antagonists and shown to be active. These values were obtained by using the following methodology.
The cells are suspended in HBSS buffer (Invitrogen) complemented with 20 mM HEPES (pH 7.4), then distributed in microplates at a density of 5×10^3 cells/well and preincubated for 5 min at room temperature in the presence of HBSS (basal control), the test compound or the reference antagonist. Thereafter, the reference agonist NECA is added at a final concentration of 1 μM. […] Following 10 min incubation at 37° C., the cells are lysed and the fluorescence acceptor (D2-labeled cAMP) and fluorescence donor (anti-cAMP antibody labeled with europium cryptate) are added. After 60 min at room temperature, the fluorescence transfer is measured at λex=337 nm and λem=620 and 665 nm using a microplate reader (Rubystar, BMG). The cAMP concentration is determined by dividing the signal measured at 665 nm by that measured at 620 nm (ratio). The results are expressed as a percent inhibition of the control response to 1 μM NECA. The standard reference antagonist is XAC, which is tested in each experiment at several concentrations to generate a concentration-response curve from which its IC50 value is calculated.
Reference: Cooper, J., Hill, S. J., and Alexander, S. P. H. (1997), An endogenous A2B adenosine receptor coupled to cyclic AMP generation in human embryonic kidney (HEK-293) cells, Brit. J. Pharmacol., 122: 546.
(In general: cAMP levels reflect the balance of adenylyl cyclase and phosphodiesterase activity.)
`COc1ccccc1OC(=O)N(C)CC#Cc1nc2c([nH]1)c(=O)n(C1CC1)c(=O)n2C1CC1` [Example 5, 1,3-Dicyclopropyl-8-(3-(methyl((2-methoxyphenoxy)carbonyl)amino)prop-1-yn-1-yl)xanthine] gave an inhibition at 0.1 µM greater than 5%.
Next, `CCCn1c(=O)n(C2CC2)c(=O)c2[nH]c(C#CCN(C)C(=O)Oc3ccc(F)cc3)nc21` [Example 2, 1-Cyclopropyl-3-propyl-8-(3-(methyl((4-fluorophenoxy)carbonyl)amino)prop-1-yn-1-yl)xanthine]: greater than 20%; `CN(CC#Cc1nc2c([nH]1)c(=O)n(C1CC1)c(=O)n2C1CC1)C(=O)Oc1ccccc1` [Example 3, 1,3-Dicyclopropyl-8-(3-(methyl(phenoxycarbonyl)amino)prop-1-yn-1-yl)xanthine]: greater than 5%; `CN(CC#Cc1nc2c([nH]1)c(=O)n(C1CC1)c(=O)n2C1CC1)C(=O)Oc1ccccc1Cl` [Example 6, 8-(3-(((2-Chlorophenoxy)carbonyl)(methyl)amino)prop-1-yn-1-yl)-1,3-dicyclopropylxanthine]: greater than 5%.
Turning to `CN(C(=O)OCC#Cc1nc2c([nH]1)c(=O)n(C1CC1)c(=O)n2C1CC1)c1ccccc1` [Example 7, 1,3-Dicyclopropyl-8-(3-((methyl(phenyl)carbamoyl)oxy)prop-1-yn-1-yl)xanthine], the inhibition at 0.1 µM is greater than 5%.
`CN(C(=O)OCC#Cc1nc2c([nH]1)c(=O)n(C1CC1)c(=O)n2C1CC1)c1ccc(Cl)cc1` [Example 8, 8-(3-(((4-Chlorophenyl)(methyl)carbamoyl)oxy)prop-1-yn-1-yl)-1,3-dicyclopropylxanthine] came in with an inhibition at 0.1 µM greater than 20%.
The value for `CN(CC#Cc1nc2c([nH]1)c(=O)n(C1CC1)c(=O)n2C1CC1)C(=O)Oc1cccc(C(F)(F)F)c1` [Example 4, 1,3-Dicyclopropyl-8-(3-(methyl((3-(trifluoromethyl)phenoxy)carbonyl)-amino)prop-1-yn-1-yl)xanthine] was greater than 5%; that for `CN(CC#Cc1nc2c([nH]1)c(=O)n(C1CC1)c(=O)n2C1CC1)C(=O)Oc1ccc(F)cc1` [Example 1, 1,3-Dicyclopropyl-8-(3-(methyl((4-fluorophenoxy)carbonyl)amino)prop-1-yn-1-yl)xanthine] was greater than 20%.

A word on the inhibition: it is the share of the control response that was lost under treatment. A higher inhibition goes with strong suppression.
